# Key:
# [1] = organism: Mus musculus; test: Activity against Forest virus infection in mice; assay type: functional
# [2] = tested on: Mus musculus; test: Activity against Forest virus infection in mice after intraperitoneal administration of 100 mg/kg; assay type: functional
# [3] = tested on: Mus musculus; test: Activity against Forest virus infection in mice after intraperitoneal administration of 200 mg/kg; assay type: functional
# [4] = organism: Mus musculus; test: Mean survival time of Forest virus infected mice that died; survivors lived through 21 days; assay type: functional
# [5] = tested on: Mus musculus; test: Mean survival time of Forest virus infected mice that died; survivors lived through 21 days after intraperitoneal administration of 100 mg/kg; assay type: functional
# [6] = tested on: Mus musculus; test: Mean survival time of Forest virus infected mice that died; survivors lived through 21 days after intraperitoneal administration of 200 mg/kg; assay type: functional
# [7] = organism: Mus musculus; test: Mean survival time of San Angelo virus infected mice that died; survivors lived through 21 days; assay type: functional
# [8] = tested on: Mus musculus; test: Activity against San Angelo virus infection in mice after intraperitoneal administration of 25 mg/kg; assay type: functional
# [9] = tested on: Mus musculus; test: Activity against San Angelo virus infection in mice after intraperitoneal administration of 50 mg/kg; assay type: functional
# [10] = tested on: Mus musculus; test: Activity against Forest virus infection in mice after intraperitoneal administration of 50 mg/kg; assay type: functional
# [11] = tested on: Mus musculus; test: Activity against Forest virus infection in mice after oral administration of 200 mg/kg; assay type: functional
# [12] = tested on: Mus musculus; test: Mean survival time of San Angelo virus infected mice that died; survivors lived through 21 days after intraperitoneal administration of 100 mg/kg; assay type: functional
# [13] = tested on: Mus musculus; test: Mean survival time of San Angelo virus infected mice that died; survivors lived through 21 days after intraperitoneal administration of 25 mg/kg; assay type: functional
# [14] = tested on: Mus musculus; test: Mean survival time of San Angelo virus infected mice that died; survivors lived through 21 days after intraperitoneal administration of 50 mg/kg; assay type: functional
# [15] = tested on: Mus musculus; test: Mean survival time of Forest virus infected mice that died; survivors lived through 21 days after intraperitoneal administration of 50 mg/kg; assay type: functional
# [16] = tested on: Mus musculus; test: Mean survival time of Forest virus infected mice that died; survivors lived through 21 days after oral administration of 200 mg/kg; assay type: functional
# [17] = organism: Mus musculus; test: Activity against San Angelo virus infection in mice; assay type: functional
# [18] = tested on: Mus musculus; test: Activity against San Angelo virus infection in mice after intraperitoneal administration of 100 mg/kg; assay type: functional
# [19] = organism: Mus musculus; test: Inhibition of […] murine melanoma artificial metastasis in lungs of C57BL/6j mice expressed as average of B16-F10 colonies in lungs from 6 or 7 mice on 17th day (no. of mice = 6); assay type: functional, Lung
# [20] = organism: Mus musculus; test: Inhibition of […] murine melanoma artificial metastasis in lungs of C57BL/6j mice expressed as average of B16-F10 colonies in lungs from 6 or 7 mice on 18-19th days (no. of mice = 7); assay type: functional, Lung
# [21] = tested on: Rattus norvegicus; test: Compound at a dose 100 mg/kg was administered to rat and Percent survivors after coronavirus infection in suckling rats.; assay type: functional
# [22] = tested on: Mus musculus; test: Mean survival time of San Angelo virus infected mice that died; survivors lived through 21 days after intraperitoneal administration of 10 mg/kg; assay type: functional
# [23] = tested on: Mus musculus; test: Mean survival time Forest virus infectedof mice that died; survivors lived through 21 days after intraperitoneal administration of 25 mg/kg; assay type: functional
# [24] = organism: Mus musculus; test: Mean survival time mice that died; survivors lived through 21 days; assay type: functional
# [25] = tested on: Mus musculus; test: Activity against Forest virus infection in mice, ip; assay type: functional
# [26] = tested on: Mus musculus; test: Activity against San Angelo virus infection in mice after intraperitoneal administration of 10 mg/kg; assay type: functional
# [27] = tested on: Mus musculus; test: Activity against Forest virus infection in mice after intraperitoneal administration of 25 mg/kg; assay type: functional
smiles,measurement,setting,value
Nc1nc(O)c2c(C(=O)O)cn(C3O[C@H](CO)[C@@H](O)[C@H]3O)c2n1 (some centres undefined),Survivors,[1],17%
same,Survivors,[2],8%
same,Survivors,[3],33%
same,Mean survival,[4],6.8 days
same,Mean survival,[5],8.1 days
same,Mean survival,[6],6 days
Nc1nc2c(ccn2[C@@H]2O[C@H](CO)[C@@H](O)[C@H]2O)c(=O)[nH]1,Mean survival,[7],7.9 days
same,Survivors,[8],92%
same,Survivors,[9],100%
same,Survivors,[1],8%
same,Survivors,[2],83%
same,Survivors,[10],83%
same,Survivors,[11],83%
same,Mean survival,[12],>21 days
same,Mean survival,[13],9 days
same,Mean survival,[14],>21 days
same,Mean survival,[4],7.4 days
same,Mean survival,[5],6.5 days
same,Mean survival,[15],6 days
same,Mean survival,[16],8 days
same,Survivors,[17],33%
same,Survivors,[18],100%
same,Mean,[19],0.14
same,Mean,[20],0.17
N#Cc1cn(C2O[C@H](CO)[C@@H](O)[C@H]2O)c2nc(N)nc(O)c12 (some centres undefined),Survivors,[1],8%
same,Survivors,[2],50%
same,Mean survival,[4],6 days
same,Mean survival,[5],8.5 days
Nc1nc(=O)c2sc(=O)n([C@@H]3O[C@H](CO)[C@@H](O)[C@H]3O)c2[nH]1 [ISATORIBINE],Survivors,[21],83%
Cn1c(=S)n(C2O[C@H](CO)[C@@H](O)[C@H]2O)c2nc(N)nc(O)c21 (some centres undefined),Survivors,[21],58%
Nc1nc(O)c2cc(Cl)n(C3O[C@H](CO)[C@@H](O)[C@H]3O)c2n1 (some centres undefined),Mean survival,[7],7.2 days
same,Mean survival,[22],8 days
same,Mean survival,[23],6 days
same,Mean survival,[24],7 days
same,Survivors,[25],8%
same,Survivors,[8],100%
same,Survivors,[9],100%
same,Survivors,[2],92%
same,Survivors,[10],100%
same,Mean survival,[13],>21 days
same,Mean survival,[14],>21 days
same,Mean survival,[4],6.5 days
same,Mean survival,[5],7 days
same,Mean survival,[15],>21 days
same,Survivors,[17],18%
same,Survivors,[26],58%
same,Survivors,[21],92%
same,Survivors,[27],92%
Cn1c(=O)n(C2O[C@H](CO)[C@@H](O)[C@H]2O)c2nc(N)nc(O)c21 (some centres undefined),Survivors,[21],75%

# From ChEMBL document CHEMBL1126611, “Modulation of leukocyte genetic expression by novel purine nucleoside analogues. A new approach to antitumor and antiviral agents” (1993)
